The structures appear in SMILES notation. pIC50: −log10 of the molar value. Where only a bound is given, the exact number is not on record here.

One assay concerns the target ROCK2 (Homo sapiens, UniProt O75116). Kind of assay: ROCK2 kinase enzymatic activity (HTRF, STK2 substrate). The format is biochemical. The note with it: ROCK2 kinase reacted at room temperature for 30 minutes. The text has this:
(§1) The kinase activity data was expressed by comparing the kinase activity of the test compound and that of the blank group (containing only DMSO), and the IC50 value was obtained by curve fitting using Prism software (GraphPad7.0).
In general terms: Time-resolved FRET reads energy transfer from a long-lived donor to a nearby acceptor.

For a further assay, the target named is ROCK1 (Homo sapiens, UniProt Q13464). Nature of the assay: ROCK1 kinase enzymatic activity (HTRF, STK2 substrate). The format is biochemical. The note with it: ROCK1 kinase reacted at room temperature for 20 minutes.
Description: as §1

Chain of ROCK2 (O75116 whole entry): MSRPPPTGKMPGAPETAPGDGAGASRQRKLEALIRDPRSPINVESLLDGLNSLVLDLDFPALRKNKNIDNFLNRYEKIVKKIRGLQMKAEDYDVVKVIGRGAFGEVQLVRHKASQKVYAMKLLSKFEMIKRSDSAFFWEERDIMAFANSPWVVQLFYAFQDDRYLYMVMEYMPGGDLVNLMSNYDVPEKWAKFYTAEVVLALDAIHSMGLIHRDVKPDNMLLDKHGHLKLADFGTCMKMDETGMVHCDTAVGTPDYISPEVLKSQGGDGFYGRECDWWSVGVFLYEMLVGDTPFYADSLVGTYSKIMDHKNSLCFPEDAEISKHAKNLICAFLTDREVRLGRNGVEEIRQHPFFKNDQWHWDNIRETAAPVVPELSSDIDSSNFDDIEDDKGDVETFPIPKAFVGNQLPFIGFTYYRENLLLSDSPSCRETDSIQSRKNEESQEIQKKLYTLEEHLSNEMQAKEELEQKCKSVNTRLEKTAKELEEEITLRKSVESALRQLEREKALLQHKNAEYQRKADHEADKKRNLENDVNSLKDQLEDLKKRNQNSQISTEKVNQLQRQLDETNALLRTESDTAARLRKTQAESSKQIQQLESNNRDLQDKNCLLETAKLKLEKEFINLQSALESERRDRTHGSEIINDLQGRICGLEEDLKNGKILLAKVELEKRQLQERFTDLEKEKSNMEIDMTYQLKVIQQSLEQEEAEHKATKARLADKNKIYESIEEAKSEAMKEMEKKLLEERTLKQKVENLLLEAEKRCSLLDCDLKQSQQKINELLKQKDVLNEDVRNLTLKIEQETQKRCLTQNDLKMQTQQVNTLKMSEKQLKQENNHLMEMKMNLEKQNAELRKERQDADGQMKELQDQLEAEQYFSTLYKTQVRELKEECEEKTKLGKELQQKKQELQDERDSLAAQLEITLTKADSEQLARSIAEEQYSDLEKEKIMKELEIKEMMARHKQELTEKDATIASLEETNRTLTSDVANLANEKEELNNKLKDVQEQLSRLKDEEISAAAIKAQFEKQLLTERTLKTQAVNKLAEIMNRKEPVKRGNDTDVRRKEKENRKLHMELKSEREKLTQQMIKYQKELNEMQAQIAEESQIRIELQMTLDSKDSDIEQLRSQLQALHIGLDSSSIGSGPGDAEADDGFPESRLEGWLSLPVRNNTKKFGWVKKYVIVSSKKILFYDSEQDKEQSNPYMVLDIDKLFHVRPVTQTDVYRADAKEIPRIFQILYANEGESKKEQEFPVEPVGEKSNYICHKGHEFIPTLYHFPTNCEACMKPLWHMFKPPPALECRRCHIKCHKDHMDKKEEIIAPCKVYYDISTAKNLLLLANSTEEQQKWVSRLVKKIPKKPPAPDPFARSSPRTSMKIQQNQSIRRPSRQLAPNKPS
Chain of ROCK1 (Q13464 whole entry): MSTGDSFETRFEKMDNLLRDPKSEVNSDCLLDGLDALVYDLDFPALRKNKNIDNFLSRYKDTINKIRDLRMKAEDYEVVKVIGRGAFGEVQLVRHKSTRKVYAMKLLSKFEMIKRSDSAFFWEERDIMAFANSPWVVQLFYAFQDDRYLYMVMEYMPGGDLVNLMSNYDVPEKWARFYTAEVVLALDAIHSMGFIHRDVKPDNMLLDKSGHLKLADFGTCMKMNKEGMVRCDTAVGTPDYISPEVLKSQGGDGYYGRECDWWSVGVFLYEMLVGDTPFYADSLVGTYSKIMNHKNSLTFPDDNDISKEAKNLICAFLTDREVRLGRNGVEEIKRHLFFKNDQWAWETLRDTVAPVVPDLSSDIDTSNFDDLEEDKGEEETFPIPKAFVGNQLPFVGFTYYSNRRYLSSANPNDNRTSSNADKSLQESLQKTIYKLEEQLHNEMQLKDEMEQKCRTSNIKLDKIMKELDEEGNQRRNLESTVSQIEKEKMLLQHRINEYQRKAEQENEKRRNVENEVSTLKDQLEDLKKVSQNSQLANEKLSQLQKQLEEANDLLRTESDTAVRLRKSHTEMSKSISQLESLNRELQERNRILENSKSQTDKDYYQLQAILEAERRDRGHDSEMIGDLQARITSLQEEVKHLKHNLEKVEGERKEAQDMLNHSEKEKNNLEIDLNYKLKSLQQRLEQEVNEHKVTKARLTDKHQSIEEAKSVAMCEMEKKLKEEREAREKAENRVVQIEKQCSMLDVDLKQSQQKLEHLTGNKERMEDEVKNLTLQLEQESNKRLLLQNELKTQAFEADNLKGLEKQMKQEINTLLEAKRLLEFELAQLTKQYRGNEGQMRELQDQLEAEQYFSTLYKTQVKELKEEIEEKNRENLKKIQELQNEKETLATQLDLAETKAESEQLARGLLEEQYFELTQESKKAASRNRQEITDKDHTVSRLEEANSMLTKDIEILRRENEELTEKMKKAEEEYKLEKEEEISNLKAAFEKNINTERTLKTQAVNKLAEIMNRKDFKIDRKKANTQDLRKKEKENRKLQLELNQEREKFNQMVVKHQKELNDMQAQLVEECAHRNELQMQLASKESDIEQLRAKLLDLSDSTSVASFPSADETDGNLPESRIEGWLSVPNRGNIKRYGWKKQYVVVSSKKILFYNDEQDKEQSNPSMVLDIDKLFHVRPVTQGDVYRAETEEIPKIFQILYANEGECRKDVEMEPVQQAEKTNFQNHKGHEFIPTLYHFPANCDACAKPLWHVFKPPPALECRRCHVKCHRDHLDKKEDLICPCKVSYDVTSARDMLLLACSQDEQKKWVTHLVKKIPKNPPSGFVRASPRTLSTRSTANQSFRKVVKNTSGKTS

As to `N#CCC1(n2cc(-c3ncnc4[nH]ccc34)c(N)n2)CN(S(=O)(=O)CCC(F)(F)F)C1` [Example 4, 2-(3-(3-amino-4-(7H-pyrrolo[2,3-d]pyrimidin-4-yl)-1H-pyrazol-1-yl)-1-((3,3,3-trifluoropropyl)sulfonyl)azetidine-3-yl)acetonitrile], the negative logarithm of the IC50 (pIC50) against ROCK2 and against ROCK1 was above 8.30 each time.
Consider `N#CCC1(n2cc(-c3ncnc4[nH]ccc34)c(N)n2)CN(S(=O)(=O)CC(=O)NN)C1` [Example 9], for which the pIC50 at ROCK2 and against ROCK1 was above 8.00 throughout.
Regarding `CNC(=O)N1CC(CC#N)(n2cc(-c3ncnc4[nH]ccc34)c(N)n2)C1` [Example 10, 3-(3-amino-4-{7H-pyrrolo[2,3-d]pyrimidin-4-yl}pyrazol-1-yl)-3-(cyanomethyl)-N-methylazetidine-1-formamide], the negative logarithm of the IC50 (pIC50) on ROCK2 and on ROCK1 was above 8.30 in each case.
Regarding `N#CCC1(n2cc(-c3ncnc4[nH]ccc34)c(N)n2)CN(C(=O)NCC(F)(F)F)C1` [Example 11, 3-(3-amino-4-(7H-pyrrolo[2,3-d]pyrimidin-4-yl)-1H-pyrazol-1-yl)-3-(cyanomethyl)-N-(2,2,2-trifluoroethyl)azetidine-1-formamide], the pIC50 against ROCK2 and against ROCK1 was above 8.00 in each case.
For `N#CCC1(n2cc(-c3ncnc4[nH]ccc34)c(N)n2)CN(C(=O)NC2CC2)C1` [Example 12, 3-(3-amino-4-(7H-pyrrolo[2,3-d]pyrimidin-4-yl)-1H-pyrazol-1-yl)-3-(cyanomethyl)-N-cyclopropylazetidine-1-formamide], the pIC50 on ROCK2 and against ROCK1 was above 7.30 each time.
Consider `N#CCC1(n2cc(-c3ncnc4[nH]ccc34)c(N)n2)CN(C(=O)N2CC(F)(F)C2)C1` [Example 13, 2-(3-(3-amino-4-(7H-pyrrolo[2,3-d]pyrimidin-4-yl)-1H-pyrazol-1-yl)-1-(3,3-difluoroazetidine-1-carbonyl)azetidin-3-yl)acetonitrile], for which the pIC50 at ROCK2 and on ROCK1 was above 7.30 in each case.
As for `CCNC(=O)N1CC(CC#N)(n2cc(-c3ncnc4[nH]ccc34)c(N)n2)C1` [Example 14, 3-(3-amino-4-(7H-pyrrolo[2,3-d]pyrimidin-4-yl)-1H-pyrazol-1-yl)-3-(cyanomethyl)-N-ethylazetidine-1-formamide], the pIC50 on ROCK2 and on ROCK1 was above 8.30 throughout.
In the case of `CC(C)NC(=O)N1CC(CC#N)(n2cc(-c3ncnc4[nH]ccc34)c(N)n2)C1` [Example 15, 3-(3-amino-4-(7H-pyrrolo[2,3-d]pyrimidin-4-yl)-1H-pyrazol-1-yl)-3-(cyanomethyl)-N-isopropylaza-1-formamide], the pIC50 at ROCK2 and against ROCK1 was above 7.30 each time.
Turning to `C[C@H](NC(=O)N1CC(CC#N)(n2cc(-c3ncnc4[nH]ccc34)c(N)n2)C1)C(F)(F)F` [Example 16, (S)-3-(3-amino-4-(7H-pyrrolo[2,3-d]pyrimidin-4-yl)-1H-pyrazol-1-yl)-3-(cyanomethyl)-N-(1,1,1-trifluoropropan-2-yl)azetidine-1-formamide], the pIC50 at ROCK2 and at ROCK1 was above 7.30 each time.
In the case of `N#CCC1(n2cc(-c3ncnc4[nH]ccc34)c(N)n2)CN(C(=O)NCCO)C1` [Example 17, 3-(3-amino-4-(7H-pyrrolo[2,3-d]pyrimidin-4-yl)-1H-pyrazol-1-yl)-3-(cyanomethyl)-N-(2-hydroxyethyl)azetidine-1-formamide], the negative logarithm of the IC50 (pIC50) at ROCK2 and at ROCK1 was above 7.30 in each case.
Consider `N#CCC1(n2cc(-c3ncnc4[nH]ccc34)c(N)n2)CN(C(=O)N[C@H]2CC2(F)F)C1` [Example 20, (S)-3-(3-amino-4-(7H-pyrrolo[2,3-d]pyrimidin-4-yl)-1H-pyrazol-1-yl)-3-(cyanomethyl)-N-(2,2-difluorocyclopropyl)azetidine-1-formamide], for which the pIC50 against ROCK2 and against ROCK1 was above 8.00 throughout.
Regarding `N#CCC(=O)N1CC(CC#N)(n2cc(-c3ncnc4[nH]ccc34)c(N)n2)C1` [Example 21, 3-(3-(3-amino-4-(7H-pyrrolo[2,3-d]pyrimidin-4-yl)-1H-pyrazol-1-yl)-3-(cyanomethyl)azetidine-1-yl]-3-oxopropionitrile], the results for the negative logarithm of the IC50 (pIC50) against ROCK2 and on ROCK1 were above 8.00 and above 8.30, respectively.
Turning to `N#CCC1(n2cc(-c3ncnc4[nH]ccc34)c(N)n2)CN(C(=O)C2CC2)C1` [Example 22, 2-(3-(3-amino-4-(7H-pyrrolo[2,3-d]pyrimidin-4-yl)-1H-pyrazol-1-yl)-1-(cyclopropanecarbonyl)azetidine-3-yl)acetonitrile], the pIC50 against ROCK2 and at ROCK1 was above 7.30 each time.
In the case of `C[C@H](N)C(=O)N1CC(CC#N)(n2cc(-c3ncnc4[nH]ccc34)c(N)n2)C1` [Example 23, 2-(1-alaninyl-3-(3-amino-4-(7H-pyrrolo[2,3-d]pyrimidin-4-yl)-1H-pyrazol-1-yl)azetidine-3-yl)acetonitrile], the pIC50 at ROCK2 and against ROCK1 was above 7.30 throughout.
Turning to `N#CCC1(n2cc(-c3ncnc4[nH]ccc34)c(N)n2)CN(C(=O)C2(F)CC2)C1` [Example 24, 2-(3-(3-amino-4-(7H-pyrrolo[2,3-d]pyrimidin-4-yl)-1H-pyrazol-1-yl)-1-(1-fluorocyclopropane-1-carbonyl)azetidine-3-yl)acetonitrile], the negative logarithm of the IC50 (pIC50) at ROCK2 and against ROCK1 was above 7.30 in each case.
`N#CCC1(n2cc(-c3ncnc4[nH]ccc34)c(N)n2)CN(C(=O)C2(C(F)(F)F)CC2)C1` [Example 25, 2-(3-(3-amino-4-(7H-pyrrolo[2,3-d]pyrimidin-4-yl)-1H-pyrazol-1-yl)-1-(1-(trifluoromethyl)cyclopropane-1-carbonyl)azetidine-3-yl)acetonitrile]: the negative-log IC50 (pIC50) on ROCK2 and at ROCK1 was above 8.00 in each case.
As for `N#CCC1(n2cc(-c3ncnc4[nH]ccc34)c(N)n2)CN(C(=O)C2(C#N)CC2)C1` [Example 26, 1-(3-(3-amino-4-(7H-pyrrolo[2,3-d]pyrimidin-4-yl)-1H-pyrazol-1-yl)-3-(cyanomethyl)azetidine-1-carbonyl)cyclopropane-1-nitrile], the pIC50 on ROCK2 and against ROCK1 was above 8.00 each time.
`N#CCC1(n2cc(-c3ncnc4[nH]ccc34)c(N)n2)CN(C(=O)C(F)(F)C(F)(F)F)C1` [Example 27]: the pIC50 against ROCK2 and on ROCK1 was above 8.00 each time.
Consider `CN(C)CC(=O)N1CC(CC#N)(n2cc(-c3ncnc4[nH]ccc34)c(N)n2)C1` [Example 28, 2-(3-(3-amino-4-(7H-pyrrolo[2,3-d]pyrimidin-4-yl)-1H-pyrazol-1-yl)-1-(dimethylglycine)azetidine-3-yl)acetonitrile], for which the pIC50 against ROCK2 and on ROCK1 was above 7.30 in each case.
With `N#CCN1CC(CC#N)(n2cc(-c3ncnc4[nH]ccc34)c(N)n2)C1` [Example 29, 2,2′-(3-(3-amino-4-(7H-pyrrolo[2,3-d]pyrimidin-4-yl)-1H-pyrazol-1-yl)azetidine-1,3-diyl)diacetonitrile], the pIC50 against ROCK2 and against ROCK1 was above 8.00 each time.
On to `N#CCC1(n2cc(-c3ncnc4[nH]ccc34)c(N)n2)CN(C(=O)CC(F)(F)F)C1` [Example 30], for which the pIC50 (as a rule, the negative decadic logarithm of the IC50, by convention in mol/L) at ROCK2 was above 8.00; against ROCK1, above 8.30.

Values taken from US20260224571A1, “AZACYCLOALKANE COMPOUND AND PHARMACEUTICAL COMPOSITION, AND USE THEREOF” (Prime Gene Therapeutics Co., Ltd., priority 2023, published 2026).
